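Exposure lasted 48 hours, with cells grown in 96-well plates and compounds tested at five concentrations. Abbreviation: GI50, concentration required for 50% inhibition of growth. TGI is the concentration that stops growth completely.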
Assays:
Experiment in all cases: NCI anticancer screen, dose series, 48 h
[1] = test system: UACC-62 melanoma
[2] = test system: NCI/ADR-RES ovarian
[3] = test system: RXF 393 renal
[4] = test system: UO-31 renal
[5] = test system: U251 CNS
[6] = test system: DU-145 prostate
[7] = test system: HOP-92 NSCLC
[8] = test system: PC-3 prostate
[9] = test system: OVCAR-5 ovarian
[10] = test system: K-562 leukemia
[11] = test system: CCRF-CEM leukemia
[12] = test system: SNB-19 CNS
[13] = test system: HOP-62 NSCLC
[14] = test system: OVCAR-8 ovarian
[15] = test system: SF-268 CNS
[16] = test system: MALME-3M melanoma
[17] = test system: OVCAR-3 ovarian
[18] = test system: NCI-H522 lung
[19] = test system: M14 melanoma
[20] = test system: SW-620 colon
[21] = test system: HCT-15 colon
[22] = test system: 786-0 renal
[23] = test system: SNB-75 CNS
[24] = test system: SR leukemia
[25] = test system: HL-60(TB) leukemia
[26] = test system: MDA-MB-435
[27] = test system: CAKI-1 renal
[28] = test system: LOX IMVI melanoma
[29] = test system: A498 renal
[30] = test system: EKVX NSCLC
[31] = test system: COLO 205 colon
[32] = test system: MCF7 breast
[33] = test system: RPMI-8226 leukemia
[34] = test system: HT29 colon
[35] = test system: MDA-MB-231 breast
[36] = test system: HCT-116 colon
[37] = test system: SK-MEL-28 melanoma
[38] = test system: HCC-2998 colon
[39] = test system: NCI-H226 lung
[40] = test system: MOLT-4 leukemia
[41] = test system: SK-MEL-2 melanoma
[42] = test system: HS 578T breast
[43] = test system: A549 NSCLC
[44] = test system: ACHN renal
[45] = test system: SF-539 CNS
[46] = test system: SK-OV-3 ovarian
[47] = test system: SN12C renal
[48] = test system: T-47D breast
[49] = test system: BT-549 breast
[50] = test system: TK-10 renal
[51] = test system: SK-MEL-5 melanoma
[52] = test system: KM12 colon
[53] = test system: OVCAR-4 ovarian
[54] = test system: NCI-H460 lung
[55] = test system: NCI-H23 lung
[56] = test system: UACC-257 melanoma
[57] = test system: SF-295 CNS
[58] = test system: IGROV1 ovarian

Structure (SMILES): ClCCN(CCCl)c1ccc(-n2cnc3c(Cl)ncnc32)cc1
- GI50 [1]: 1.81 µM
- TGI [1]: 3.35 µM
- GI50 [2]: 4.15 µM
- TGI [2]: 20.3 µM
- GI50 [3]: 1.86 µM
- TGI [3]: 3.33 µM
- GI50 [4]: 1.7 µM
- TGI [4]: 3.34 µM
- GI50 [5]: 2.91 µM
- TGI [5]: 9.1 µM
- GI50 [6]: 1.88 µM
- TGI [6]: 3.59 µM
- GI50 [7]: 10.9 µM
- TGI [7]: 26.1 µM
- GI50 [8]: 4.38 µM
- TGI [8]: 18.2 µM
- GI50 [9]: 17.9 µM
- TGI [9]: 35.9 µM
- GI50 [10]: 3.24 µM
- TGI [10]: 9.92 µM
- GI50 [11]: 3.05 µM
- TGI [11]: > 100 µM
- GI50 [12]: 5.4 µM
- TGI [12]: 17.4 µM
- GI50 [13]: 6.94 µM
- TGI [13]: 20.2 µM
- GI50 [14]: 2.37 µM
- TGI [14]: 5.38 µM
- GI50 [15]: 1.81 µM
- TGI [15]: 3.73 µM
- GI50 [16]: 2.17 µM
- TGI [16]: 4.41 µM
- GI50 [17]: 1.77 µM
- TGI [17]: 3.15 µM
- GI50 [18]: 3.84 µM
- TGI [18]: 14.9 µM
- GI50 [19]: 1.96 µM
- TGI [19]: 3.88 µM
- GI50 [20]: 1.76 µM
- TGI [20]: 3.29 µM
- GI50 [21]: 1.79 µM
- TGI [21]: 3.65 µM
- GI50 [22]: 14 µM
- TGI [22]: 28.4 µM
- GI50 [23]: 2.06 µM
- TGI [23]: 7.37 µM
- GI50 [24]: 2.06 µM
- TGI [24]: 6.55 µM
- GI50 [25]: 2.5 µM
- TGI [25]: 6.58 µM
- GI50 [26]: 2.04 µM
- TGI [26]: 4.12 µM
- GI50 [27]: 0.697 µM
- TGI [27]: 2.05 µM
- GI50 [28]: 2 µM
- TGI [28]: 4.09 µM
- GI50 [29]: 11.9 µM
- TGI [29]: 24.5 µM
- GI50 [30]: 1.65 µM
- TGI [30]: 3.66 µM
- GI50 [31]: 5.74 µM
- TGI [31]: 19.1 µM
- GI50 [32]: 3.68 µM
- TGI [32]: 15.1 µM
- GI50 [33]: 9.69 µM
- TGI [33]: 59.1 µM
- GI50 [34]: 2.07 µM
- TGI [34]: 4.15 µM
- GI50 [35]: 3.28 µM
- TGI [35]: 11.1 µM
- GI50 [36]: 1.82 µM
- TGI [36]: 3.33 µM
- GI50 [37]: 1.94 µM
- TGI [37]: 3.64 µM
- GI50 [38]: 1.84 µM
- TGI [38]: 3.41 µM
- GI50 [39]: 13.3 µM
- TGI [39]: 27.7 µM
- GI50 [40]: 2.99 µM
- TGI [40]: 7.84 µM
- GI50 [41]: 14 µM
- TGI [41]: 27.6 µM
- GI50 [42]: 2.95 µM
- TGI [42]: 9.79 µM
- GI50 [43]: 12.5 µM
- TGI [43]: 29.7 µM
- GI50 [44]: 1.84 µM
- TGI [44]: 3.54 µM
- GI50 [45]: 5.23 µM
- TGI [45]: 19 µM
- GI50 [46]: 11 µM
- TGI [46]: 22.9 µM
- GI50 [47]: 3.17 µM
- TGI [47]: 10.2 µM
- GI50 [48]: 3.28 µM
- TGI [48]: 12.9 µM
- GI50 [49]: 3.51 µM
- TGI [49]: 12.9 µM
- GI50 [50]: 13 µM
- TGI [50]: 81.9 µM
- GI50 [51]: 2.36 µM
- TGI [51]: 5.94 µM
- GI50 [52]: 6.16 µM
- TGI [52]: 19.5 µM
- GI50 [53]: 1.85 µM
- TGI [53]: 3.33 µM
- GI50 [54]: 2.14 µM
- TGI [54]: 4.88 µM
- GI50 [55]: 2.02 µM
- TGI [55]: 3.79 µM
- GI50 [56]: 2.24 µM
- TGI [56]: 5.16 µM

Structure (SMILES): CCN(CC)c1ccc2c(c1)Oc1nc(N)c(C#N)c(N)c1C2Sc1ccc(SC)cc1 (centres undefined)
- GI50 [1]: 1.48 µM
- TGI [1]: 2.96 µM
- GI50 [2]: 2.39 µM
- TGI [2]: 6.13 µM
- GI50 [3]: 1.66 µM
- TGI [3]: 3.31 µM
- GI50 [4]: 1.51 µM
- TGI [4]: 2.84 µM
- GI50 [5]: 1.35 µM
- TGI [5]: 2.7 µM
- GI50 [6]: 1.82 µM
- TGI [6]: 3.21 µM
- GI50 [7]: 1.72 µM
- TGI [7]: 3.43 µM
- GI50 [8]: 1.41 µM
- TGI [8]: 2.81 µM
- GI50 [9]: 2.37 µM
- TGI [9]: 4.75 µM
- GI50 [10]: 2.33 µM
- TGI [10]: 5.69 µM
- GI50 [11]: 1.27 µM
- TGI [11]: 5.02 µM
- GI50 [12]: 1.52 µM
- TGI [12]: 2.9 µM
- GI50 [13]: 1.76 µM
- TGI [13]: 3.26 µM
- GI50 [14]: 2.08 µM
- TGI [14]: 4.43 µM
- GI50 [15]: 1.69 µM
- TGI [15]: 3.44 µM
- GI50 [16]: 2.38 µM
- TGI [16]: 4.72 µM
- GI50 [17]: 1.73 µM
- TGI [17]: 3.17 µM
- GI50 [18]: 2.42 µM
- TGI [18]: 4.31 µM
- GI50 [19]: 1.74 µM
- TGI [19]: 3.47 µM
- GI50 [20]: 1.88 µM
- TGI [20]: 3.68 µM
- GI50 [21]: 1.59 µM
- TGI [21]: 3.07 µM
- GI50 [22]: 1.75 µM
- TGI [22]: 3.19 µM
- GI50 [57]: 1.67 µM
- TGI [57]: 3.12 µM
- GI50 [23]: 1.56 µM
- TGI [23]: 3.17 µM
- GI50 [24]: 0.436 µM
- TGI [24]: 3.87 µM
- GI50 [25]: 1.97 µM
- TGI [25]: 5.15 µM
- GI50 [26]: 1.86 µM
- TGI [26]: 3.58 µM
- GI50 [28]: 1.39 µM
- TGI [28]: 2.75 µM
- GI50 [29]: 1.88 µM
- TGI [29]: 3.44 µM
- GI50 [30]: 0.528 µM
- TGI [30]: 1.97 µM
- GI50 [31]: 1.84 µM
- TGI [31]: 3.55 µM
- GI50 [32]: 1.6 µM
- TGI [32]: 3.65 µM
- GI50 [33]: 2.5 µM
- TGI [33]: 6.56 µM
- GI50 [34]: 2.33 µM
- TGI [34]: 4.61 µM
- GI50 [35]: 1.54 µM
- TGI [35]: 3.07 µM
- GI50 [36]: 1.46 µM
- TGI [36]: 2.81 µM
- GI50 [37]: 2.05 µM
- TGI [37]: 3.91 µM
- GI50 [38]: 1.96 µM
- TGI [38]: 3.47 µM
- GI50 [39]: 1.53 µM
- TGI [39]: 2.89 µM
- GI50 [40]: 1.33 µM
- TGI [40]: 4.6 µM
- GI50 [41]: 2.48 µM
- TGI [41]: 5.51 µM
- GI50 [42]: 2.15 µM
- TGI [42]: 7.1 µM
- GI50 [43]: 1.94 µM
- TGI [43]: 3.5 µM
- GI50 [44]: 1.68 µM
- TGI [44]: 3.04 µM
- GI50 [45]: 1.64 µM
- TGI [45]: 3 µM
- GI50 [46]: 2.16 µM
- TGI [46]: 3.96 µM
- GI50 [48]: 1.74 µM
- TGI [48]: 3.94 µM
- GI50 [49]: 1.42 µM
- TGI [49]: 2.78 µM
- GI50 [50]: 2.59 µM
- TGI [50]: 4.1 µM
- GI50 [51]: 1.65 µM
- TGI [51]: 3.01 µM
- GI50 [52]: 1.66 µM
- TGI [52]: 3.46 µM
- GI50 [53]: 1.75 µM
- TGI [53]: 3.4 µM
- GI50 [54]: 1.8 µM
- TGI [54]: 3.69 µM
- GI50 [55]: 1.58 µM
- TGI [55]: 3.16 µM
- GI50 [56]: 3.23 µM
- TGI [56]: 6.22 µM
- GI50 [58]: 1.57 µM
- TGI [58]: 3.37 µM
